# Measurements from patent US7139415B2, “Robotic microscopy systems” (The Regents of the University of California, priority 2001, dated 2006).
# Legend:
# [1] = test system: neurons transfected with GFP; assay: Automated imaging of survival of GFP-transfected neurons; assay type: cell-based; details: kainate added 24 or 76 hours after transfection, compared with untreated sister culture
# Experimental: (§1) If the “loss” of GFP corresponded to the death of a neuron, that the loss of GFP positive neurons could be quantified over time as a measure of neuronal survival. To test whether the “loss” of GFP corresponded to the death of a neuron, the loss of GFP in transfected neurons was measured at the same time as the loss of membrane integrity using a membrane impermeant nuclear dye, ethidium homodimer (EtHD). EtHD staining of cell nuclei is taken as a positive sign of death in the widely used “LIVE-DEAD” assay.
# Next, expression of the transfection marker GFP was tested for its affect on survival. FIG. 16E is a graph showing the results of a parallel experiment, in which the survival of transfected neurons in two sister cultures was compared. One culture was imaged once at the end of the experiment (hatched bar) and the other was imaged both a day after transfection and at the end of the experiment (solid bars). The two cultures show nearly identical survival. Finally, if this approach is a valid way to measure neuronal survival, it should be able to detect the effects of molecules known to regulate survival. First, the ability to detect the neurotoxicity of kainic acid was tested. […]
# FIG. 16C is a graph showing survival of transfected neurons in three sister cultures was monitored and compared. […]
# [2] = test system: GFP transfected neurons; assay type: cell-based; details: in the presence of extracellular EtHD
# Experimental: as §1
# FIG. 16A is a panel of photographs exemplifying application of an automated imaging system to the study of neuronal survival, and showing that loss of GFP fluorescence correlates with a loss of membrane integrity and nuclear staining with ethidium homodimer. […] Between 60 (not shown) and 75 minutes, GFP fluorescence is abruptly lost from one neuron and its nucleus stains positively for EtHD. Later, the other transfected neuron in the image loses GFP fluorescence and stains positively for EtHD. […] Thus, overall, the GFP fluorescence of particular neurons disappeared eventually but abruptly, and at that same moment, the nuclei of those neurons stained positively with EtHD (FIG. 16A). Thus, the loss of GFP fluorescence correlated well with one widely accepted measure of cell death.
structure (smiles),measurement,setting,value
C=C(C)[C@H]1CN[C@H](C(=O)O)[C@H]1CC(=O)O [kainic acid],neuronal survival (number of surviving GFP positive neurons),[1],significant decrease in neuronal survival
same,morphology of GFP transfected neurons in response to the neurotoxin,[2],cell bodies of GFP transfected neurons rounded and swelled and their neurites began to retract
